# Source: patent publication US12077759B2, “Compositions and methods for treating pathologic calcification” (Washington University, priority 2021, dated 2024)
# Test system: Wnt/β-catenin pathway
# Assay: Treatment of ACLp cells with Wnt agonist SKL2001 (rescue of osteogenesis)
# Type: cell-based, human
# Conditions: SKL2001 10 μM
# Description: In short, 5×10^5 ACLp cells were first treated with KIF26B shRNA or scrambled shRNA for 48 hours and selected by Puromycin for another 48 hours. Afterward, 2×10^5 ACLp cells were seeded in a 12-well plate. Next osteogenesis was induced as above but in addition, SKL2001 (10 μM) dissolved in dimethyl sulfoxide (DMSO, Sigma-Aldrich) or DMSO only (vehicle) was added to cells. The medium was changed 3 times a week. After 7 days of osteogenic induction, the protein levels of active and total β-catenin were detected by Western blot as described above. After culture for 28 days, the Alizarin red staining was performed as above. After 28 days of osteogenic induction, RNA was isolated and expression of AXIN2 and WNT16 was measured using standard methods detailed above.
smiles,measurement,setting,value
O=C(NCCCn1ccnc1)c1cc(-c2ccco2)on1 [SKL2001],decrease of active β-catenin protein levels after KIF26B knockdown (Western blot),"ACLp cells transduced with KIF26B shRNA, 7 days of osteogenic induction",significantly attenuated
same,decrease in osteogenesis due to KIF26B loss-of-function (Alizarin red staining),"ACLp cells transduced with KIF26B shRNA, 28 days",reverted
same,AXIN2 mRNA expression,"ACLp cells, 28 days of osteogenic induction, vehicle (DMSO) 1.00±0.02, p<0.001",2.20±0.08
same,WNT16 mRNA expression,"ACLp cells, 28 days of osteogenic induction, vehicle (DMSO) 1.00±0.14, p<0.001",3.06±0.13
